In US20230048888A1, “USE OF TRIAZOLOTRIAZINE DERIVATIVE IN TREATMENT OF DISEASES” (ZHEJIANG VIMGREEN PHARMACEUTICALS, LTD., priority 2019, published 2023):
Where two headings read alike, the source gives them in different places.

Assay: Pharmacokinetics of acetate of Compound 22 in SD rats with single and repeated administration
Assay type: in vivo
Conditions: for clearance / Vd / AUC(0-t) / half-life / bioavailability / Cmax / C0 / Tmax: rat, plasma; for Tmax: read-out: Tmax (median)
Method: The formulation for Group 5 was prepared before administration on Day 1, and then, divided into daily doses and stored at 5±3° C. After taking out the formulations on the day of administration, the formulations should be let stand at room temperature for at least 30 minutes before administration.
After blood collection, the blood collection tube containing the anticoagulant was turned upside down several times to mix well, and placed on wet ice before centrifugation. Within 60 minutes after blood collection, the samples were centrifuged at 2000 g for 10 minutes at 2-8° C. to separate red blood cells, thereby obtaining plasma samples. The plasma samples were transferred to cryovials and stored at −75±15° C. until analysis.
Blood samples were collected from SD rats at room temperature before administration and within 24 hours after administration. All collected samples were placed on wet ice before centrifugation and stored at −75±15° C. until analysis.
The mass spectrometer was Applied Biosystems/AB Sciex Triple Quad 4500.
Pharmacokinetic data was calculated using the linear logarithmic trapezoidal method, with a weight of 1/(Y*Y). Samples with the sample concentration below the lower limit of quantification were excluded from the calculation of pharmacokinetic parameters. […] The mean time to peak (Tmax) was represented as a median.

Which “exposure ratio between Day 7 and Day 1” value (63 mg/kg daily for 7 consecutive days) does the source give for CC(=O)O.Nc1nc(NCCc2ccc(NC3COC3)cc2)nc2nc(-c3ccco3)nn12 [Acetate of Compound 22, 2-(furan-2-yl)-N5-(4-(oxetane-3-ylamino)phenethyl)-[1,2,4]triazolo[1,5-a][1,3,5]triazine-5,7-diamine acetate] here?
The value was “less than 2”.

What about the F (Group 2 PO 21 mg/kg single, Female) of the same compound?
The F was 70.8 ± 6.75%.

What about the F (Group 2 PO 21 mg/kg single, Male) of the same compound?
The F was 82.2 ± 20.6%.

What about the F (Group 2 PO 21 mg/kg single, Overall) of the same compound?
Its F is 76.5 ± 15.1%.

And the F (Group 3 PO 63 mg/kg single, Female)?
Its F is 74.1 ± 21.9%.

What about the F (Group 3 PO 63 mg/kg single, Male) of the same compound?
The F was 56.9 ± 1.98%.

What about the F (Group 3 PO 63 mg/kg single, Overall) of the same compound?
The F was 65.5 ± 16.8%.

What about the F (Group 4 PO 189 mg/kg single, Female) of the same compound?
Its F is 44.9 ± 10.1%.

What about the F (Group 4 PO 189 mg/kg single, Male) of the same compound?
The F was 50.9 ± 5.28%.

And the F (Group 4 PO 189 mg/kg single, Overall)?
The F was 47.9 ± 7.91%.

And the F (Group 5 PO 63 mg/kg repeated, Day 1, Female)?
The F was 77.0 ± 12.5%.

And the F (Group 5 PO 63 mg/kg repeated, Day 1, Male)?
The F was 51.9 ± 20.5%.

And the F (Group 5 PO 63 mg/kg repeated, Day 1, Overall)?
The F was 64.5 ± 20.5%.

What about the clearance (Sprague-Dawley (SD), intravenous injection 2.0 mg/kg, read-out: clearance rate (CL)) of the same compound?
The clearance was 6.02 mL/min/kg.

And the Vd (Sprague-Dawley (SD), intravenous injection 2.0 mg/kg, read-out: steady-state apparent volume of distribution (Vss))?
The Vd was 0.457 L/kg.

What about the AUC(0-t) (Sprague-Dawley (SD), iv, 2 mg/kg, intravenous injection 2.0 mg/kg, read-out: drug exposure AUC0-t) of the same compound?
The AUC(0-t) was 5.36 µg·h/mL.

And the half-life (Sprague-Dawley (SD), iv, 2 mg/kg, intravenous injection 2.0 mg/kg, read-out: half-life T1/2 (converted))?
Its half-life is 3.39 h.

What about the bioavailability (Sprague-Dawley (SD), oral 21 mg/kg) of the same compound?
The bioavailability was 76.5%.

And the bioavailability (Sprague-Dawley (SD), oral 63 mg/kg)?
Its bioavailability is 65.5%.

What about the bioavailability (Sprague-Dawley (SD), oral 189 mg/kg) of the same compound?
Its bioavailability is 47.9%.

And the AUC(0-t) (Sprague-Dawley (SD), oral, 63 mg/kg, 63 mg/kg daily for 7 consecutive days, Day 1, read-out: AUC0-t)?
The AUC(0-t) was 111 µg·h/mL.

What about the AUC(0-t) (Sprague-Dawley (SD), oral, 63 mg/kg, 63 mg/kg daily for 7 consecutive days, Day 7, read-out: AUC0-t) of the same compound?
Its AUC(0-t) is 127 µg·h/mL.

And the AUC(0-t) (Sprague-Dawley (SD), po, 21 mg/kg, oral 21 mg/kg, read-out: drug exposure (AUC0-t))?
The AUC(0-t) was 42.8 µg·h/mL.

What about the Cmax (Sprague-Dawley (SD), po, 21 mg/kg, oral 21 mg/kg, read-out: maximum plasma concentration (Cmax)) of the same compound?
The Cmax was 18400 ng/mL.

And the AUC(0-t) (Sprague-Dawley (SD), po, 63 mg/kg, oral 63 mg/kg, read-out: drug exposure (AUC0-t))?
The AUC(0-t) was 112 µg·h/mL.

And the Cmax (Sprague-Dawley (SD), po, 63 mg/kg, oral 63 mg/kg, read-out: maximum plasma concentration (Cmax))?
Its Cmax is 27400 ng/mL.

And the AUC(0-t) (Sprague-Dawley (SD), po, 189 mg/kg, oral 189 mg/kg, read-out: drug exposure (AUC0-t))?
The AUC(0-t) was 241 µg·h/mL.

What about the Cmax (Sprague-Dawley (SD), po, 189 mg/kg, oral 189 mg/kg, read-out: maximum plasma concentration (Cmax)) of the same compound?
The Cmax was 51800 ng/mL.

And the C0 (Sprague-Dawley, Group 1 IV 2.0 mg/kg single, Female)?
The C0 was 8140 ± 820 ng/mL.

And the clearance (Sprague-Dawley, Group 1 IV 2.0 mg/kg single, Female, read-out: CL)?
The clearance was 5.66 ± 0.166 mL/min/kg.

And the Vd (Sprague-Dawley, Group 1 IV 2.0 mg/kg single, Female, read-out: Vss)?
The Vd was 0.465 ± 0.122 L/kg.

What about the C0 (Sprague-Dawley, Group 1 IV 2.0 mg/kg single, Male) of the same compound?
Its C0 is 7060 ± 699 ng/mL.

And the clearance (Sprague-Dawley, Group 1 IV 2.0 mg/kg single, Male, read-out: CL)?
The clearance was 6.56 mL/min/kg.

And the Vd (Sprague-Dawley, Group 1 IV 2.0 mg/kg single, Male, read-out: Vss)?
The Vd was 0.445 L/kg.

What about the C0 (both sexes, Sprague-Dawley, Group 1 IV 2.0 mg/kg single, Overall) of the same compound?
The C0 was 7600 ± 905 ng/mL.

What about the clearance (both sexes, Sprague-Dawley, Group 1 IV 2.0 mg/kg single, Overall, read-out: CL) of the same compound?
Its clearance is 6.02 ± 0.668 mL/min/kg.

What about the Vd (both sexes, Sprague-Dawley, Group 1 IV 2.0 mg/kg single, Overall, read-out: Vss) of the same compound?
Its Vd is 0.457 ± 0.088 L/kg.

What about the AUC(0-t) (both sexes, Sprague-Dawley, iv, 2 mg/kg, Group 1 IV 2.0 mg/kg single, Overall, read-out: AUC0-t) of the same compound?
The AUC(0-t) was 5.36 ± 0.664 µg·h/mL.

What about the half-life (both sexes, Sprague-Dawley, iv, 2 mg/kg, Group 1 IV 2.0 mg/kg single, Overall, read-out: T1/2 (converted)) of the same compound?
Its half-life is 3.39 ± 2.9 h.

What about the AUC(0-t) (both sexes, Sprague-Dawley, po, 21 mg/kg, Group 2 PO 21 mg/kg single, Overall, read-out: AUC0-t) of the same compound?
Its AUC(0-t) is 42.8 ± 7.21 µg·h/mL.

What about the Cmax (both sexes, Sprague-Dawley, po, 21 mg/kg, Group 2 PO 21 mg/kg single, Overall, read-out: Cmax) of the same compound?
Its Cmax is 18400 ± 4040 ng/mL.

What about the half-life (both sexes, Sprague-Dawley, po, 21 mg/kg, Group 2 PO 21 mg/kg single, Overall, read-out: T1/2 (converted)) of the same compound?
The half-life was 3.47 ± 0.596 h.

What about the Tmax (both sexes, Sprague-Dawley, po, 21 mg/kg, Group 2 PO 21 mg/kg single, Overall) of the same compound?
Its Tmax is 0.5 h.

What about the AUC(0-t) (both sexes, Sprague-Dawley, po, 63 mg/kg, Group 3 PO 63 mg/kg single, Overall, read-out: AUC0-t) of the same compound?
Its AUC(0-t) is 112 ± 37.2 µg·h/mL.

What about the Cmax (both sexes, Sprague-Dawley, po, 63 mg/kg, Group 3 PO 63 mg/kg single, Overall, read-out: Cmax) of the same compound?
Its Cmax is 27400 ± 7200 ng/mL.

And the half-life (both sexes, Sprague-Dawley, po, 63 mg/kg, Group 3 PO 63 mg/kg single, Overall, read-out: T1/2 (converted))?
Its half-life is 3.01 ± 0.63 h.

What about the Tmax (both sexes, Sprague-Dawley, po, 63 mg/kg, Group 3 PO 63 mg/kg single, Overall) of the same compound?
Its Tmax is 1 h.

What about the AUC(0-t) (both sexes, Sprague-Dawley, po, 63 mg/kg, Group 5 PO 63 mg/kg repeated, Day 1, Overall, read-out: AUC0-t) of the same compound?
The AUC(0-t) was 111 ± 42.1 µg·h/mL.

What about the Cmax (both sexes, Sprague-Dawley, po, 63 mg/kg, Group 5 PO 63 mg/kg repeated, Day 1, Overall, read-out: Cmax) of the same compound?
Its Cmax is 28800 ± 11400 ng/mL.

And the half-life (both sexes, Sprague-Dawley, po, 63 mg/kg, Group 5 PO 63 mg/kg repeated, Day 1, Overall, read-out: T1/2 (converted))?
Its half-life is 3.33 ± 1.68 h.

What about the Tmax (both sexes, Sprague-Dawley, po, 63 mg/kg, Group 5 PO 63 mg/kg repeated, Day 1, Overall) of the same compound?
Its Tmax is 2 h.
